Experiments:
HEK293 cells = assay: Rate of proteolysis in HEK293 cells after hSMG1 RNAi knockdown; format: cell-based, human; details: RNAi knockdown of hSMG1, lysosomal inhibitor added
From the text: Autophagy is the quintessential cellular response to limited nutrient supplies and/or the presence of damaged cytoplasmic components (Levine and Yuan, 2005). The corresponding ouabain-induced overexpression of hSMG1 may be a biochemical mechanism by which metabolic homeostasis is re-established, either by inhibiting or promoting autophagy. The possible influence of hSMG1 on autophagy was examined via a series of RNAi knockdown experiments. […] Consequently, all knockdown experiments were performed using the 293 cell line. Following RNAi knockdown, cells were either exposed to or deprived of amino acids and the effect on the rate of proteolysis noted. […] Protein degradation is enhanced in RNAi knockdown cells versus their unaltered counterparts (FIG. 3a). […]
Intracellular Protein Turnover. Rates of protein synthesis were measured in confluent cells as the incorporation of [3H]leucine [10 μCi/ml (1 Ci=37 GBq)] into acid-insoluble material in the presence of an excess (2.8 mM) of unlabeled leucine in the medium (to minimize differences due to alteration of amino acid transport and/or intracellular amino acid pool sizes). […] Aliquots of the medium taken at different times were precipitated with trichloroacetic acid, and proteolysis was calculated as the amount of acid precipitable radioactivity converted into acid soluble at each time (Auteri et al., 1983). […]

DLD-1 cells = assay: Degradation of long-lived proteins (proteolysis) in DLD-1 cells; format: cell-based, human; details: for effect on ouabain-induced increase in protein degradation: 20 mM NH4Cl and 100 μM leupeptine or 10 mM 3-methyladenine during the chase
From the text: The Na^+/K^+-ATPase is the common target of ouabain, digoxin, and digitoxin (Buckalew, 2005). Na^+/K^+-ATPase inhibition induces a plethora of effects including (a) disruption of the Na^+/K^+ gradient and consequent increase in intracellular [Ca^2+] (Grapengiesser et al., 1993), (b) interference with amino acid uptake (Johnson et al., 1986), and (c) the production of reactive oxygen species resulting in oxidative damage to proteins and organelles (Xie et al., 1999). Each of these individual events is either sufficient or necessary to promote autophagy. The latter maintains cell viability by furnishing essential biochemical building blocks via degradation of existing proteins and organelles in lysosomes (Levine and Klionsky, 2004). However, the effect of ouabain, or its cardiotonic congeners, on autophagy has not been examined. The later was explored by measuring rates of degradation of long-lived proteins, the preferential substrate for lysosomal degradation, in DLD-1 cells. […] The latter implies that macroautophagy, the degradation of sequestered material in a vesicular-based fashion, along with other types of autophagy (i.e. chaperone-mediated autophagy and microautophagy) contribute to ouabain-induced proteolysis.
Intracellular Protein Turnover. Rates of protein synthesis were measured in confluent cells as the incorporation of [3H]leucine [10 μCi/ml (1 Ci=37 GBq)] into acid-insoluble material in the presence of an excess (2.8 mM) of unlabeled leucine in the medium (to minimize differences due to alteration of amino acid transport and/or intracellular amino acid pool sizes). 28 To measure degradation of long-lived proteins, confluent cells were labeled with [3H]leucine (2 μCi/ml) for 48 h at 37° C. and then extensively washed and maintained in complete or amino acid depleted medium containing an excess of unlabeled leucine. Aliquots of the medium taken at different times were precipitated with trichloroacetic acid, and proteolysis was calculated as the amount of acid precipitable radioactivity converted into acid soluble at each time (Auteri et al., 1983). Where indicated, 20 mM NH4Cl and 100 μM leupeptine or 10 mM 3-methyladenine were added during the chase to block lysosomal proteolysis or macroautophagy, respectively.

ATR = ATR mRNA quantity in DLD-1 cells in response to ouabain; format: cell-based, human
From the text: (§1) hSMG1 is a member of the PIKK family, which also includes ATM, ATR, mTOR, and DNA-PK (Therien and Blostein, 2000). These large, structurally homologous, proteins have been implicated as participants in the cellular response to various forms of stress.

[1] = tested on: hSMG1 transcription sites; assay: Fluorescence in situ hybridization (FISH) of active hSMG1 transcription sites in DLD-1 cells; format: cell-based, human; details: ouabain 10 μM for 1 hr, untreated 0.19
From the text: The branched chain DNA assay affords an averaged expression response from a cell population. The magnitude of this response is a function of actin mRNA levels, a baseline that furnishes relative, but not absolute, hSMG1 mRNA quantity. Since actin mRNA levels may be susceptible to influence by these drugs as well, fluorescence in situ hybridization was employed to directly visualize hSMG1 mRNA transcription sites in the DLD-1 cell line. […] Furthermore, these enhanced levels of mRNA synthesis rate and quantity directly translate into higher proteins levels, as exemplified by the ouabain-induced 2.7-fold increase in hSMG1 protein in DLD-1 cells (FIG. 2).
Fluorescence in situ hybridization (FISH). Previously described oligomer probes, each 50 bases in length from four regions of the hSMG1 gene, were designed with OLIGO software from Molecular Biology Insights, Inc., and synthesized on an Applied Biosystems automated DNA/RNA synthesizer (Capodieci et al., 2005). The activated fluorophore cy3 (Amersham) was used to label the probes. DLD-1 cells were seeded onto gelatinized coverslips, incubated as described above for 24 hr, and then treated with ouabain (10 μm) for 1 hr. […] The FISH specimens were imaged and analyzed as previously described (Capodieci et al., 2005).

hSMG1 mRNA [2] = assay: hSMG1 over-expression response to ouabain in other cell lines; format: cell-based
hSMG1 mRNA [3] = assay: hSMG1 mRNA quantitation (branched DNA assay) in DLD-1 cells exposed to ouabain; format: cell-based, human
Description: The QuantiGene® Explore kit (Panomics, Inc.) was used to furnish a direct quantitation of mRNA in a 96 well format. The “housekeeper gene” 13-actin was selected as an intracellular control. Specific oligonucleotide probes for hSMG1, including capture extenders (CE), label extenders (LE) and blocking probes (BL) were designed with the Panomics ProbeDesigner™ software and synthesized. Prior to drug exposure, HeLa cells were incubated for 24 hr in 150 μL Dulbecco's modified Eagle Medium (DMEM) with 10% fetal bovine serum (FBS) and DLD-1 cells were incubated for 24 hr in 150 μL MEM with 1 mM MEM nonessential amino acids, 1 mM sodium pyrurate, 0.15% sodium bicarbonate, and 10% FBS. Cells were then exposed to various concentrations of the drugs for 24 hr and then lysed via incubation in 75 μL lysis buffer (QuantiGene® Explore kit) at 53° C. for 1 hr. Capture of hSMG1 and actin mRNA was conducted according to the manufacturers instructions and quantification performed using a microplate luminometer.

hSMG1 mRNA [4] = assay: Drug library screen, hSMG1 mRNA quantitation by branched DNA assay in HeLa cells; format: cell-based, human
Description: HeLa cells were separately exposed to each drug from the drug library in a multiwell plate format. After 24 h, hSMG mRNA was captured and quantified using a branched DNA assay (Collins et al., 1997). Actin mRNA levels were simultaneously measured from the same cell lysate in order to compensate for differences in viable cell number as a consequence of drug treatment. […] Both agents bind to and inhibit the Na^+/K^+-ATPase (Therien and Blostein, 2000).
Drug Library Screen and hSMG1 message quantitation. The QuantiGene® Explore kit (Panomics, Inc.) was used to furnish a direct quantitation of mRNA in a 96 well format. The “housekeeper gene” […] was selected as an intracellular control. Specific oligonucleotide probes for hSMG1, including capture extenders (CE), label extenders (LE) and blocking probes (BL) were designed with the Panomics ProbeDesigner™ software and synthesized. Prior to drug exposure, HeLa cells were incubated for 24 hr in 150 μL Dulbecco's modified Eagle Medium (DMEM) with 10% fetal bovine serum (FBS) and DLD-1 cells were incubated for 24 hr in 150 μL MEM with 1 mM MEM nonessential amino acids, 1 mM sodium pyrurate, 0.15% sodium bicarbonate, and 10% FBS. Cells were then exposed to various concentrations of the drugs for 24 hr and then lysed via incubation in 75 μL lysis buffer (QuantiGene® Explore kit) at 53° C. for 1 hr. Capture of hSMG1 and actin mRNA was conducted according to the manufacturers instructions and quantification performed using a microplate luminometer.

hSMG1 protein = hSMG1 protein quantitation by Western blot in DLD-1 cells; format: cell-based, human; details: 10 μM ouabain for 24 hr
Description: hSMG1 Protein Quantitation. DLD-1 cells were exposed to 10 μM ouabain for 24 hr and subsequently lysed. Total protein concentration, following centrifugation, was determined using the BCA Protein Assay Kit (Pierce). Following electrophoresis, the membrane was divided and the individual halves separately exposed to the SMG1 antibody BL1657 (Bethyl Laboratories) and the actin antibody A5441 (Sigma) and then subsequently incubated with the appropriate horseradish peroxidase conjugated secondary antibodies. The membranes were treated with the Pierce Supersignal West Pico chemiluminescent reagent and quantified.

mTOR = mTOR mRNA quantity in DLD-1 cells in response to ouabain; format: cell-based, human
From the text: as §1

ATM = ATM mRNA quantity in DLD-1 cells in response to ouabain; format: cell-based, human
From the text: as §1

DNAPK = DNAPK mRNA quantity in DLD-1 cells in response to ouabain; format: cell-based, human
From the text: as §1

## Cl.N [ammonium chloride]
HEK293 cells
  effect on protein degradation caused by hSMG1 knockdown: only partly mitigates the effect of hSMG1 knockdown on protein degradation
DLD-1 cells; ouabain treated
  effect on ouabain-induced increase in protein degradation: completely blocked

## CC(=O)N[C@@H](CC(C)C)C(=O)N[C@@H](CC(C)C)C(=O)N[C@H](C=O)CCCNC(=N)N [leupeptin]
DLD-1 cells; ouabain treated
  effect on ouabain-induced increase in protein degradation: completely blocked

## Cn1cnc(N)c2ncnc1-2 [3-methyladenine]
DLD-1 cells; ouabain treated, 10 mM 3-methyladenine
  lysosomal degradation sensitive to 3-methyladenine: 30.5±3.4%
DLD-1 cells; ouabain treated
  effect on ouabain-induced increase in protein degradation: partially offsets the effect of ouabain

## C[C@@H]1O[C@@H](O[C@H]2C[C@@H](O)[C@]3(CO)[C@H]4[C@H](O)C[C@]5(C)[C@@H](C6=CC(=O)OC6)CC[C@]5(O)[C@@H]4CC[C@]3(O)C2)[C@H](O)[C@H](O)[C@H]1O [Ouabain, ouabain]
ATR
  change in ATR mRNA quantity: 0.7±0.1 fold
[1]
  fraction of cells displaying active hSMG1 transcription sites: 0.63±0.1
hSMG1 mRNA [2]; 786-0 renal carcinoma, ouabain 10 μM
  hSMG1 over-expression response: 6.1±0.4 fold
hSMG1 mRNA [2]; GM02037 wild type fibroblast, ouabain 10 μM
  hSMG1 over-expression response: 3.4±0.1 fold
hSMG1 mRNA [2]; HEK 293, ouabain 10 μM
  hSMG1 over-expression response: 3.3±0.2 fold
hSMG1 mRNA [2]; PC3 prostate carcinoma, ouabain 10 μM
  hSMG1 over-expression response: 2.7±0.2 fold
hSMG1 mRNA [2]; U87 glioblastoma, ouabain 10 μM
  hSMG1 over-expression response: 1.4±0.1 fold
hSMG1 mRNA [2]; primary astrocyte, ouabain 10 μM
  hSMG1 over-expression response: 5.4±0.1 fold
hSMG1 mRNA [3]; DLD-1 adenocarcinoma, ouabain 10 μM
  hSMG1 over-expression response: 4.3±0.1 fold
hSMG1 mRNA [3]; DLD-1 cells in response to ouabain
  enhancement in hSMG1 mRNA quantity: 4.3±0.1
hSMG1 mRNA [3]; DLD-1 cells, ouabain 10 μM alone, mean ± S.D. of three wells
  hSMG1 Expression relative to untreated cells: 4.3 ± 0.1
hSMG1 mRNA [4]
  enhancement of hSMG1 expression levels: 2 fold
hSMG1 protein
  increase in hSMG1 protein: 2.7 fold
mTOR
  change in mTOR mRNA quantity: 1.3±0.1 fold
ATM
  change in ATM mRNA quantity: 1.1±0.1 fold
DLD-1 cells; ouabain 10 μM, compared with amino acid starvation
  effect on proteolysis (degradation of long-lived proteins): dramatically enhances proteolysis
DNAPK
  change in DNAPK mRNA quantity: 0.8±0.1 fold
